Experimental data as given in patent US8664226B2, “Compound having 3-heteroarylpyrimidin-4-(3H)-one structure and pharmaceutical preparation containing same” (Kowa Company, Ltd., priority 2009, dated 2014).
Read-outs that look alike come from different tables or passages of the source.

How the values were obtained:
human PPARγ2 = target: T1, human PPARγ2 (Homo sapiens, UniProt P37231); assay: PPARγ activation activity, Gal4 chimera luciferase transfection assay using COS7 cells; type: cell-based; settings: for EC50: Gal4-human PPARγ2 LBD chimera, luciferase reporter, 16 hours; for Emax: COS-7, 16 h, maximum activity strength relative to the maximum activity of rosiglitazone, read-out: % MAX vs Rosiglitazone; for maximum activity compared with telmisartan: maximum PPARγ activity, telmisartan 30 to 50% of rosiglitazone under the same condition
T1 construct: the amino acids 182 to 505 of human PPARγ2; expressed in transfected cells; host or cells: COS7 cells
T1 sequence (P37231 182-505): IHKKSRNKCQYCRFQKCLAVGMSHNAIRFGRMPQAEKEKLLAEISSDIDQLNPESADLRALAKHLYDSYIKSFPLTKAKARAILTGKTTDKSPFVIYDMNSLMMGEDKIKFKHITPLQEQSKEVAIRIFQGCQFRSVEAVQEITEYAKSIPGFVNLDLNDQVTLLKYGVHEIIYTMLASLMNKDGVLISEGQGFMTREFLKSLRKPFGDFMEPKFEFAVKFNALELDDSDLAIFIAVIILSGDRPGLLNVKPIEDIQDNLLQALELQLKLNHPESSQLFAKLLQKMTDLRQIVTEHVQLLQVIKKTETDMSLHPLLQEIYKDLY
T1 sequence (P04386 1-147 partner limits assumed): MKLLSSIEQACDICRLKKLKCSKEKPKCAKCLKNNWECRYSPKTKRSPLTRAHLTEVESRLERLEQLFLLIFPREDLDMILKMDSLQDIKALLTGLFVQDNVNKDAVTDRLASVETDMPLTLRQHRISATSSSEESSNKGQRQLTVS
Method: The agonistic activity of the compounds of the invention on PPARγ was measured based on the transfection assay using COS7 cells (DS Pharma Biomedical Co., Ltd., Osaka, Japan), which are the cell line derived from the kidney of the African green monkey. COS7 cells were cultured under 5% CO2 concentration, and DMEM medium containing 10% fetal bovine serum, glutamic acid, and antibiotics was used as a medium.
As an expression vector, a chimera in which DNA binding domain of Gal4, which is a yeast transcription factor, and ligand binding domain of human PPAR^γ2 are fused, i.e., a fused product between the amino acids 1 to 147 of Gal4 transcription factor and the amino acids 182 to 505 of human PPARγ2, was used. Furthermore, as a reporter vector, a firefly luciferase containing five copies of Gal4 recognition sequence in the promoter region was used. Plasmid transfection to the cells was performed according to a method which uses jetPEI (trade name, manufactured by Funakoshi Co., Ltd., Tokyo, Japan). Furthermore, β-galactosidase expression vector was employed as an internal standard.
After the transfection of the cells, the medium was replaced with a DMEM medium (containing 1% serum) added with the compound, and the cells were further cultured for 16 hours. After that, the luciferase activity and β-galactosidase activity in the cell lysis solution were measured.
For the present test, dimethyl sulfoxide (DMSO) was used for dissolution and dilution of the test compounds, and during the cell treatment, the DMSO concentration in DMEM medium (containing 1% serum) was adjusted to 0.1%. As a positive compound, rosiglitazone (trade name, manufactured by ALEXIS Corporation, Switzerland) was used. […] The 50% effective concentration of the test compound (EC50, 50% effect concentration) was calculated by using SAS Preclinical Package Ver5.0 (trade name, manufactured by SAS institute Japan Co., Tokyo, Japan), which is a statistical analysis program.

[1] = target: T2, angiotensin II type 1 receptor (Oryctolagus cuniculus, UniProt P34976); assay: Angiotensin II antagonistic activity in isolated rabbit blood vessels; settings: angiotensin II (10 nM)-induced contraction of rabbit thoracic aorta ring
T2 construct: By using a specimen of isolated rabbit blood vessels; from tissue; host or cells: rabbit thoracic aorta ring (New Zealand White, male)
T2 sequence (P34976 1-359): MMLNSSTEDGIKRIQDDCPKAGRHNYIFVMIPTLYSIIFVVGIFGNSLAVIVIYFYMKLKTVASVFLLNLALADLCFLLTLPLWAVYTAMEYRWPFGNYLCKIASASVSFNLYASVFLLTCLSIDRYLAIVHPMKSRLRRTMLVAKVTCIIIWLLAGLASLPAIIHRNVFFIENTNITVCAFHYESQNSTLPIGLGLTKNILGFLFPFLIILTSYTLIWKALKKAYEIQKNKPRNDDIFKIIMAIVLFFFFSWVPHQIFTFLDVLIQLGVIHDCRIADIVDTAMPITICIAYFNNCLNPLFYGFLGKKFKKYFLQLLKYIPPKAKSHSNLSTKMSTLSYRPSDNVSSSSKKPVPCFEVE
Method: By using a specimen of isolated rabbit blood vessels, antagonistic activity of the compounds of the invention against angiotensin II type 1 receptor was estimated from a dose-response curve of angiotensin II-induced blood vessel contraction.
During the measurement, the inside temperature of the magnus bath was maintained at 37° C. and the bath was continuously ventilated with a sufficient amount of mixed gas (95% O2 and 5% CO2). The angiotensin II-induced contraction was converted into a relative value (%) that is based on the angiotensin II (10 nM)-induced contraction in the absence of the compounds of each example. From the concentration-response curve obtained therefrom, 50% inhibition concentration (IC50 value) was calculated by using SAS Preclinical Package Ver5.0 (trade name, manufactured by SAS institute Japan Co., Tokyo, Japan), which is a statistical analysis program.

SMILES	EC50 (human PPARγ2; COS7 cells, read-out: EC50)	IC50 [1]	Emax (human PPARγ2; COS7 cells)	maximum activity compared with telmisartan (human PPARγ2)	EC50 (human PPARγ2; EC50, COS7 cells)
CCCCc1nc(C)n(-c2ncc(OCCc3ccc(CC)cn3)cn2)c(=O)c1Cc1ccc(-c2ccccc2-c2nnn[nH]2)cc1 [Example 36, 5-{[2′-(1H-tetrazol-5-yl)biphenyl-4-yl]methyl}-6-butyl-3-{5-[2-(5-ethylpyridin-2-yl)ethoxy]pyrimidin-2-yl}-2-methylpyrimidin-4 (3H)-one]	3770 nM	627 nM	–	–	–
CCCCc1nc(C)n(-c2nc3ccccc3s2)c(=O)c1Cc1ccc(-c2ccccc2-c2nnn[nH]2)cc1 [Example 70, 5-{[2′-(1H-tetrazol-5-yl)biphenyl-4-yl]methyl}-3-(benzothiazol-2-v1)-6-butyl-2-methylpyrimidin-4 (3H)-one]	690 nM	–	39.7%	the same or greater than that of telmisartan	–
CCCCc1nc(C)n(-c2ccc(C(F)(F)F)cn2)c(=O)c1Cc1ccc(-c2ccccc2-c2nnn[nH]2)cc1 [Example 11, 5-{[2′-(1H-tetrazol-5-yl)biphenyl-4-yl]methyl}-6-butyl-2-methyl-3-[5-(trifluoromethyl)pyridin-2-yl]pyrimidin-4(3H)-one]	1300 nM	981 nM	48.6%	the same or greater than that of telmisartan	–
CCCCc1nc(C)n(-c2ncc(OCCCC(=O)N(CC)CC)cn2)c(=O)c1Cc1ccc(-c2ccccc2-c2nnn[nH]2)cc1 [Example 52, 4-{2-{5-{[2′-(1H-tetrazol-5-yl)biphenyl-4-yl]methyl}-4-butyl-2-methyl-6-oxopyrimidin-1(6H)-yl}pyrimidin-5-yloxy}-N,N-diethylbutanamide]	140 nM	8.3 nM	–	–	–
CCCCOc1cnc(-n2c(C)nc(CCCC)c(Cc3ccc(-c4ccccc4-c4nnn[nH]4)cc3)c2=O)nc1 [Example 24, 5-{[2′-(1H-tetrazol-5-yl)biphenyl-4-yl]methyl}-3-(5-butoxypyrimidin-2-yl)-6-butyl-2-methylpyrimidin-4 (3H)-one]	860 nM	141 nM	–	–	–
CCCCc1nc(C)n(-c2ncc(Br)cn2)c(=O)c1Cc1ccc(-c2ccccc2-c2nnn[nH]2)cc1 [Example 16, 5-{[2′-(1H-tetrazol-5-yl)biphenyl-4-yl]methyl}-3-(5-bromopyrimidin-2-yl)-6-butyl-2-methylpyrimidin-4 (3H)-one]	2410 nM	14 nM	35.5%	–	–
CCCCc1nc(C)n(-c2nc3ccccc3n2C)c(=O)c1Cc1ccc(-c2ccccc2-c2nnn[nH]2)cc1 [Example 69, 5-{[2′-(1H-tetrazol-5-yl)biphenyl-4-yl]methyl}-6-butyl-2-methyl-3-(1-methyl-1H-benzimidazol-2-yl)pyrimidin-4 (3H)-one]	2690 nM	958 nM	31.6%	–	–
CCCCc1nc(C)n(-c2ncc(OCCCNS(=O)(=O)C(F)(F)F)cn2)c(=O)c1Cc1ccc(-c2ccccc2-c2nnn[nH]2)cc1 [Example 58, N-{3-{2-{5-{[2′-(1H-tetrazol-5-yl)biphenyl-4-yl]methyl}-4-butyl-2-methyl-6-oxopyrimidin-1 (6H)-yl}pyrimidin-5-yloxy}propyl}-1,1,1-trifluoromethane sulfonamide]	1910 nM	352 nM	–	–	–
CCCCc1nc(C)n(-c2ncc(OCCCC(=O)NCC)cn2)c(=O)c1Cc1ccc(-c2ccccc2-c2nnn[nH]2)cc1 [Example 49, 4-{2-{5-{[2′-(1H-tetrazol-5-yl)biphenyl-4-yl]methyl}-4-butyl-2-methyl-6-oxopyrimidin-1(6H)-yl}pyrimidin-5-yloxy}-N-ethylbutanamide]	70 nM	12 nM	–	–	–
CCCCc1nc(C)n(-c2ncc(OCCSC)cn2)c(=O)c1Cc1ccc(-c2ccccc2-c2nnn[nH]2)cc1 [Example 26, 5-{[2′-(1H-tetrazol-5-yl)biphenyl-4-yl]methyl}-6-butyl-2-methyl-3-{5-[2-(methylthio)ethoxy]pyrimidin-2-yl}pyrimidin-4 (3H)-one]	3890 nM	24 nM	–	–	–
CCCCc1nc(C)n(-c2ccc3ccccc3n2)c(=O)c1Cc1ccc(-c2ccccc2-c2nnn[nH]2)cc1 [Example 66, 5-{[2′-(1H-tetrazol-5-yl)biphenyl-4-yl]methyl}-6-butyl-2-methyl-3-(quinolin-2-yl)pyrimidin-4 (3H)-one]	820 nM	432 nM	55.5%	the same or greater than that of telmisartan	–
CCCCc1nc(C)n(-c2ncc(C(F)(F)F)cc2Cl)c(=O)c1Cc1ccc(-c2ccccc2-c2nnn[nH]2)cc1 [Example 13, 5-{[2′-(1H-tetrazol-5-yl)biphenyl-4-yl]methyl}-6-butyl-3-[3-chloro-5-(trifluoromethyl)pyridin-2-yl]-2-methylpyrimidin-4(3H)-one]	170 nM	26 nM	–	–	–
CCCCc1nc(C)n(-c2ncc(OC(C(=O)O)c3ccccc3)cn2)c(=O)c1Cc1ccc(-c2ccccc2-c2nnn[nH]2)cc1 (stereo not shown) [Example 42, 2-{2-{5-{[2′-(1H-tetrazol-5-yl)biphenyl-4-yl]methyl}-4-butyl-2-methyl-6-oxopyrimidin-1(6H)-yl}pyrimidin-5-yloxy}-2-phenylacetic acid]	4220 nM	2.7 nM	–	–	–
CCCCc1nc(C)n(-c2nccc3ccccc23)c(=O)c1Cc1ccc(-c2ccccc2-c2nnn[nH]2)cc1 [Example 67, 5-{[2′-(1H-tetrazol-5-yl)biphenyl-4-yl]methyl}-6-butyl-3-(isoquinolin-1-yl)-2-methylpyrimidin-4 (3H)-one]	740 nM	< 10000 nM	–	–	–
CCCCc1nc(C)n(-c2ncc(OCCCC(N)=O)cn2)c(=O)c1Cc1ccc(-c2ccccc2-c2nnn[nH]2)cc1 [Example 47, 4-{2-{5-{[2′-(1H-tetrazol-5-yl)biphenyl-4-yl]methyl}-4-butyl-2-methyl-6-oxopyrimidin-1(6H)-yl}pyrimidin-5-yloxy}butanamide]	80 nM	2.6 nM	–	–	–
CCCCc1nc(C)n(-c2ccc(F)cn2)c(=O)c1Cc1ccc(-c2ccccc2-c2nnn[nH]2)cc1 [Example 5, 5-{[2′-(1H-tetrazol-5-yl)biphenyl-4-yl]methyl}-6-butyl-3-(5-fluoropyridin-2-yl)-2-methylpyrimidin-4(3H)-one]	3660 nM	102 nM	27.6%	–	–
CCCCc1nc(C)n(-c2ccc(OC)cn2)c(=O)c1Cc1ccc(-c2ccccc2-c2nnn[nH]2)cc1 [Example 3, 5-{[2′-(1H-tetrazol-5-yl)biphenyl-4-yl]methyl}-6-butyl-3-(5-methoxypyridin-2-yl)-2-methylpyrimidin-4(3H)-one]	3740 nM	18 nM	–	–	–
CCCc1nc2c(C)cc(-c3nc4ccccc4n3C)cc2n1Cc1ccc(-c2ccccc2C(=O)O)cc1 [telmisartan, reference compound]	–	–	30 to 50%	–	1000 to 5000 nM
CCCCc1nc(C)n(-c2ncc(OCC(=O)O)cn2)c(=O)c1Cc1ccc(-c2ccccc2-c2nnn[nH]2)cc1 [Example 38, 2-{2-{5-{[2′-(1H-tetrazol-5-yl)biphenyl-4-yl]methyl}-4-butyl-2-methyl-6-oxopyrimidin-1(6H)-yl}pyrimidin-5-yloxy}acetic acid]	–	6.5 nM	–	–	–
CCCCc1nc(C)n(-c2ncc(OCCCC(=O)NC)cn2)c(=O)c1Cc1ccc(-c2ccccc2-c2nnn[nH]2)cc1 [Example 48, 4-{2-{5-{[2′-(1H-tetrazol-5-yl)biphenyl-4-yl]methyl}-4-butyl-2-methyl-6-oxopyrimidin-1(6H)-yl}pyrimidin-5-yloxy}-N-methylbutanamide]	–	9.9 nM	–	–	–
